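Exposure lasted 48 hours, with cells grown in 96-well plates and compounds tested at five concentrations. GI50: concentration for 50% inhibition of growth. TGI: concentration producing complete growth inhibition.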

Test in all cases: inhibition of tumour cell growth, NCI panel, 48 h
For assay [1], the system named is A549 NSCLC.
Assay [2] deals with SN12C renal.
The subject of assay [3] is SK-MEL-5 melanoma.
The test system of assay [4] is RXF 393 renal.
The test system of assay [5] is UO-31 renal.
Assay [6] deals with ACHN renal.
Assay [7] deals with DU-145 prostate.
For assay [8], the system named is A498 renal.

On to `O=C(Nc1cccc(-n2cc(-c3ccncc3)c(-c3cc(O)cc(Cl)c3)n2)c1)c1ccc(N2CCOCC2)c(C(F)(F)F)c1`, for which the GI50 in assay [1] is 1.64 µM; in assay [2], 6.37 µM; in assay [3] it was 2.33 µM; in assay [4], 0.303 µM; in assay [5] it was 1.41 µM; in assay [6] it was 1.84 µM. Further, the GI50 in assay [7] is 5.65 µM; in assay [8], 19.4 µM. Also, the TGI is 18 µM in assay [1]; greater than 100 µM in assay [2]; 8.49 µM in assay [3]; 1.9 µM in assay [4]; 15.5 µM in assay [5]; 29.3 µM in assay [6]. Besides, the values for the TGI in assay [7] and in assay [8] were greater than 100 µM and 73.2 µM, respectively.

`C[C@]12CC[C@H]3[C@@H](CCC4=CC(=O)CC[C@@]43C)[C@@H]1CC[C@@H]2c1csc(N)n1`: the GI50 in assay [1] was 5.77 µM; in assay [2] it was 3.57 µM; in assay [3], 1.69 µM; in assay [4], 10.8 µM; in assay [5], 2.46 µM; in assay [6], 6.4 µM. Further, the GI50 was 6.72 µM in assay [7] and 2.51 µM in assay [8]. For the same compound, the TGI in assay [1] was 31.6 µM; in assay [2], 24.5 µM; in assay [3] it was 5.41 µM; in assay [4], 24.2 µM; in assay [5], 11.2 µM; in assay [6] it was 40.6 µM. Also, the TGI stood at 24.5 µM in assay [7] and 12.4 µM in assay [8].

Turning to `CCN=c1sc2c(n1NC(=O)c1cc3ccc1CCc1ccc(cc1)CC3)C(=O)c1ccccc1C2=O`, the GI50 was 0.738 µM in assay [1]; 0.52 µM in assay [2]; 0.563 µM in assay [3]; 0.504 µM in assay [4]; 0.356 µM in assay [5]; 0.492 µM in assay [6]. Besides, the GI50 was 0.632 µM in assay [7] and 4.81 µM in assay [8]. Besides, the TGI in assay [1] came to 1.71 µM; in assay [2], 1.06 µM; in assay [3], 1.03 µM; in assay [4], 0.976 µM; in assay [5] it was 0.96 µM; in assay [6] it was 0.965 µM. For the same compound, the values for the TGI in assay [7] and in assay [8] were 1.16 µM and 20.9 µM, respectively.

Consider `COc1ccc(OC)c(NCC(=O)n2nc(/C=C\c3ccc(O)c(OC)c3)cc2/C=C\c2ccc(O)c(OC)c2)c1`, for which the GI50 in assay [1] is 3.4 µM; in assay [2], 2.52 µM; in assay [3] it was 1.66 µM; in assay [4], 1.51 µM; in assay [5], 1.8 µM; in assay [7] it was 3.23 µM. For the same compound, the GI50 in assay [8] was 1.6 µM. Moreover, the TGI was 33.1 µM in assay [1]; greater than 100 µM in assay [2]; 4.91 µM in assay [3]; 3.19 µM in assay [4]; 13.6 µM in assay [5]; 12.7 µM in assay [7]. The compound further came in with a TGI in assay [8] of 5.7 µM.

For `CN[C@@H](C)C(=O)N[C@H]1CN(S(=O)(=O)c2cccc(S(=O)(=O)N3CC[C@H]4CC[C@@H](C(=O)NC(c5ccccc5)c5ccccc5)N4C(=O)[C@@H](NC(=O)[C@H](C)NC)C3)c2)CC[C@H]2CC[C@@H](C(=O)NC(c3ccccc3)c3ccccc3)N2C1=O`, the GI50 in assay [1] is greater than 53.1 µM; in assay [2] it was 16.6 µM; in assay [3], 9.56 µM; in assay [4], 0.165 µM; in assay [5], greater than 73 µM; in assay [6], greater than 79.7 µM. Also, the GI50 is 15.1 µM in assay [7] and 32.6 µM in assay [8]. Also, the TGI in assay [1] is greater than 100 µM; in assay [2], 36 µM; in assay [3], 34.3 µM; in assay [4], 2.93 µM; in assay [5] it was greater than 100 µM; in assay [6] it was greater than 100 µM. The TGI was 28.3 µM in assay [7] and greater than 67.7 µM in assay [8].

As for `O=C1Oc2ccccc2C(=O)/C1=C1/C=C(c2ccccc2)SS1`, the TGI in assay [1], in assay [2], in assay [3], in assay [4], in assay [5] and in assay [6] was greater than 100 µM throughout. Also, the TGI in assay [7] and in assay [8] was greater than 100 µM each time.

As for `CCN(CC)CCCNc1ccc(C)c2sc3ccccc3c(=O)c12`, the GI50 was 0.554 µM in assay [1]; 1.09 µM in assay [2]; 0.187 µM in assay [3]; 0.446 µM in assay [4]; 0.514 µM in assay [5]; 0.869 µM in assay [6]. In addition, the GI50 in assay [7] was 1.04 µM. Also, the TGI in assay [1] came out at 1.99 µM; in assay [2], 7.51 µM; in assay [3], 0.343 µM; in assay [4] it was 1.76 µM; in assay [5] it was 2.07 µM; in assay [6], 2.31 µM. Moreover, in assay [7], the TGI stood at 2.44 µM.

For the compound `OC1(c2ccc(Cl)c(C(F)(F)F)c2)CCN(CCCC(c2ccc(F)cc2)c2ccc(F)cc2)CC1`, the GI50 in assay [1] was 0.837 µM; in assay [2], 0.831 µM; in assay [3] it was 0.797 µM; in assay [4], 0.638 µM; in assay [5] it was 0.714 µM; in assay [6], 0.87 µM. For the same compound, the values for the GI50 in assay [7] and in assay [8] were 0.897 µM and 0.515 µM, respectively. The TGI in assay [1] was determined as 1.58 µM; in assay [2] it was 1.54 µM; in assay [3], 1.47 µM; in assay [4], 1.27 µM; in assay [5] it was 2.72 µM; in assay [6], 1.63 µM. Also, the TGI in assay [7] was found to be 1.66 µM; in assay [8] it was 1.12 µM.

Regarding `COCC([C@@H](O)C(O)C(=O)NCC[C@@H](C)c1nc(/C=C/CC2OC3(C[C@H](O)C2C)OC(C(C[C@H](O)C(C)[C@H](O)C(C)/C=C(C)/C(C)=C/C=C/C(C)=C/C#N)OC)[C@@H](OP(=O)(O)O)C3(C)C)co1)N(C)C` (stereo partly drawn), the TGI in assay [1] amounted to 0.00147 µM; in assay [2], 0.00034 µM; in assay [5], 0.00279 µM; in assay [6], 0.000394 µM; in assay [7], 0.000322 µM; in assay [8], 0.00333 µM.

In the case of `CC1(C)N=C(N)N=C(N)N1c1ccc(CCC(=O)Nc2ccc(S(=O)(=O)F)cc2)cc1`, the GI50 in assay [1] was 2.87 µM; in assay [2], 1.59 µM; in assay [3], 0.774 µM; in assay [4], 0.307 µM; in assay [5] it was 34.1 µM; in assay [6], 7.34 µM. Moreover, the GI50 in assay [7] is 0.871 µM; in assay [8], 5.99 µM. For the same compound, the TGI is greater than 100 µM in assay [1]; greater than 100 µM in assay [2]; 57 µM in assay [3]; greater than 100 µM in assay [4]; greater than 100 µM in assay [5]; greater than 100 µM in assay [6]. Also, the TGI in assay [7] and in assay [8] was greater than 100 µM throughout.

The values above are taken from PubChem BioAssay (NCI).
